We go through 6 compounds from patent publication US4959182A, “Method and compositions providing enhanced chemiluminescence from 1,2-dioxetanes” (priority 1989, dated 1990).

The conditions of data set [1]: cited from earlier work.
Data set [2] concerns Alkaline Phosphatase from Human Blood Serum. Kind of data set: Triggering the chemiluminescence of 2c with alkaline phosphatase from human blood serum. The data set is classed as biochemical. As to the method: 1. Triggering the Chemiluminescence of 2c with Alkaline Phosphatase from Human Blood Serum. A stock solution of dioxetane 2c was prepared in dioxane/water (1:1 v/v) by photooxygenation of 1c. A sample of fresh blood was drawn from a healthy donor and the red blood cells removed by centrifugation to provide serum for the experiments. Treatment of 3 mL of a 10^-5 M solution of 2c in 0.75 M 2-amino-2-methyl-1-propanol (221) buffer (pH 10.3) at 37° C. with 100 μL of serum led to the typical intensity vs. time profile shown in FIG. 3 where the serum is injected at time zero. Under these conditions the light intensity reaches a constant level of approximately 2.3×10^4 counts/sec. The background luminescence signal from non-enzymatic hydrolysis of 2c is less than 0.05% of the enzyme-generated value. […] The light intensity at any other time point can also be conveniently used to provide a direct measure of the enzyme concentration (FIG. 5). [drawing 31]

The next data set concerns S-antigen. Briefly: Chemiluminescent ELISA for S-antigen with dioxetane 2c and alkaline phosphatase conjugate. An excerpt:
4. Chemiluminescent Enzyme-Linked Assays. Enzymatic triggering of appropriately substituted dioxetanes provides an ultrasensitive detection method for enzyme-linked biological assays. For example, phosphate-substituted dioxetane 2c can be used with enzyme linked immunoassays and DNA probes that utilize alkaline phosphatase as the marker for detection. Previous detection methods make use of substrates which develop a color or become fluorescent upon reaction with this enzyme. The sensitivity of the chemiluminescent technique with dioxetane 2c is illustrated by an enzyme-linked immunosorbant assay (ELISA) for the retinal protein, S-antigen. Using procedures of L. A. Donoso (L. A. Donoso, C. F. Merryman, K. E. Edelberg, R. Naids, and C. Kalsow, Investigative Ophthalmology & Visual Science, 26, 561 (1985)), a series of 7 Immulon™ wells were coated with varying amounts of S-antigen (112, 56, 28, 14, 7, 3, 1.3 ng), reacted with a monoclonal antibody (MAbA9-C6) developed in mouse, and finally reacted with anti-mouse IgG coupled to alkaline phosphatase. A chemiluminescence assay of each well was then conducted individually by adding 100 μL of 221 buffer (0.75 M, pH 9.1) containing Mg(OAc)2 (8.0×10^-4 M), CTAB (1.13×10^-3 M), and fluorescein surfactant 3 (5.6×10^-5 M). […] The reagent background luminescence is very low and constant at 15 - 20 counts/sec (FIG. 13). […] Following the experiments with the luminometer, the wells containing the same solution were subsequently used for a photographic detection experiment (FIG. 15). The 7 wells were placed in a holder and incubated for 30 minutes at 37° C. and then photographed at that temperature with ASA 3000 Polaroid™Type 57 film for 15 min in a light-tight incubator. […] The reproducibility of the photographic assay is illustrated in FIG. 16. Four wells coated with 50 ng of antigen were treated with buffer and dioxetane as above, incubated for 1 hour at 45° C., and then photographed with the film for 30 sec at that temperature.
(In general: ELISA stands for enzyme-linked immunosorbent assay.)

Data set [3] is classed as physicochemical. The conditions noted are these: for half-life: in xylene, read-out: t1/2 at 25° C. (converted); for half-life / k(sec^-1) at 25° C.: 25° C. As to the method:
Rates for thermal decomposition of the stable dioxetanes were monitored by the decay of chemiluminescence of aerated solutions. A cylindrical Pyrex vial equipped with magnetic stir bar was filled with 3-4 mL of the reaction solvent, sealed with a Teflon-lined screw cap and placed in the thermostatted sample block of the chemiluminescence-measuring luminometer. Temperature control was provided by an external circulating water bath. Appropriate values for the instrument gain and optical slit size were selected. […]. The vial was sealed with a Teflon-lined screw cap to prevent evaporation when high temperatures were used. Measurement of the signal was begun by opening the shutter. The chemiluminescent decay was generally recorded for at least three half-lives. Calculation of the first-order rate constant (k) from the In (Intensity) vs. time data was performed by a computer program utilizing a standard least-squares treatment. The correlation coefficient (r) was typically at least 0.999 and k varied less than 5% between replicate samples.
Activation parameters for decomposition of the dioxetanes were calculated from plots of In k vs. 1/T (Arrhenius eq.) or In k/t vs. 1/T (Eyring eq.) by a standard least-squares linear regression analysis.
Activation Energies for Thermal Decomposition of Dioxetanes

Data set [4] concerns Alkaline Phosphatase from Bovine Intestinal Mucosa. Briefly: Triggering the chemiluminescence of 2c with alkaline phosphatase from bovine intestinal mucosa. Type of data set: biochemical. As to the method: (§1) The same procedure as those employed in the measurement of the decay kinetics was used for the determination of chemiluminescence quantum yields with the following modifications. An accurately measured aliquot of a dioxetane stock solution of known concentration was added to 3 mL of the pre-thermostatted organic solvent or aqueous buffer. The reaction was then triggered by adding the appropriate chemical reagent or enzyme. The total light intensity was integrated by a photon-counting luminometer using an RCA A-31034A gallium-arsenide PMT cooled to -78° C.
2. Triggering the Chemiluminescence of 2c with Alkaline Phosphatase from Bovine Intestinal Mucosa. Alkaline phosphatase from bovine intestinal mucosa was obtained from Sigma Chemical Co. as a suspension of 5.1 mg of protein per mL of 3.2 M (NH4)2 SO4 solution. […] 3. Triggering the Chemiluminescence of 2c with Alkaline Phosphatase: Enhanced Chemiluminescence Efficiency via Intermolecular Energy Transfer in Aqueous Micelles. […] Alkaline phosphatase experiments with dioxetane 2c were conducted at 37° C. with 3 mL of a solution containing: 2c (4.3×10^-5 M), 221 buffer (0.75 M, pH 9.1), Mg(OAc)2 (8.0×10^-4 M), CTAB (1.13×10^-3 M), and fluorescein surfactant 3 (5.6×10^-5 M).
To test the sensitivity of this chemiluminescence method for evaluating concentrations of alkaline phosphatase in solution, a series of experiments were carried out using enzyme stock solutions prepared by dilutions of the commercial sample obtained from Sigma. A conservative estimate of the concentration of phosphatase in the sample was made by assuming that the 5.1 mg of protein per mL in the sample was 100% pure alkaline phosphatase. A molecular weight of 140,000 as also used in calculating molar amounts of enzyme. The conditions were the same as described above with 2c, CTAB, and fluorescer 3 except that the final quantities of enzyme in the 3 mL solutions were:
Enzymatic triggering experiments such as those described above were also carried out in Immumlon™ microtitre wells from Dynatech, Inc. made of transparent polystyrene. The wells were used individually and placed in a light-tight holder which could be thermostatted. The chemiluminescence was detected at the bottom of the well using a fiber optic connected to the photon-counting luminometer described previously. This experimental set-up allowed much smaller reaction volumes to be used. For example, a series of experiments using dioxetane 2c, CTAB, and 3 in 200 μL of 221 buffer with amounts of alkaline phosphatase ranging from 5×10^-15 to 2×10^-18 moles (or 2 attomoles) were carried out. […] A more realistic assumption for the purity of the enzyme sample might be 10%.

For data set [5] the following is noted: aryloxide form, 25° C.
Data set [6] is described as follows: Base-triggered chemiluminescence of dioxetanes 2a/2b in DMSO, water, CTAB micelles and micelles with fluorescent co-surfactant.
Excerpt: The chemiluminescence quantum yield (.PHI.CL) for the decomposition of dioxetanes is defined as the ratio of einsteins of chemiluminescence emitted to moles of dioxetane decomposed. Sufficient energy is released during the reaction from the reaction enthalpy (ΔHR) plus the Arrhenius activation energy (Ea) to populate the singlet excited state of one of the carbonyl cleavage products. Therefore, the maximum quantum yield is 1.0. Another parameter of interest is the chemiexcitation quantum yield (.PHI.CE) which is defined as the ratio of excited states formed to dioxetane decomposed. The chemiexcitation quantum yield is related to the chemiluminescence quantum yield via the fluorescence quantum yield of the dioxetane cleavage (.PHI.F) through the equation: .phi.CL =.phi.CE X .phi.F.
as §1
Spectra of the chemiluminescence from chemically or enzymatcally triggered dioxetanes were obtained by conducting the reaction in a 1-cm square quartz cuvette in the sample compartment of a Spex Fluorolog spectrofluorometer at ambient temperature. Correction for the decay of the chemiluminescence intensity during the wavelength scan was made by accumulating the spectrum in a ratio mode so that the observed spectrum was divided by the signal from an auxiliary detector (EMI 9781B) which measures the total signal as a function of time. The monochromator bandpass was typically 18 nm. For weakly emitting samples, several identical scans were performed and added together to improve the signal-to-noise ratio.
1. Triggering the Chemiluminescence of Hydroxy-Substituted Dioxetane 2a with Base.
2. […] Cationic surfactants such as cetyltrimethylammonium bromide (CTAB) can be used to increase rates for chemical triggering of chemiluminescence from appropriately substituted dioxetanes in aqueous solution. […] The dioxetane is solubilized in the micelles formed by the surfactant and NaOH is added to initiate the chemiluminescence. […] Typically, the experiments were carried out with [2b]=9.1×10^-5 M, [CTAB]=2×10^-3 M, and [OH^- ]=9.1×10^-5 M at 37° C.
Similar experiments were conducted with the benzothiazamide surfactant 4. […] Enzymatic Triggering of Phosphate-Substituted Dioxetane 2c.

Setting [7] is: thermal decomposition in xylene.
Where [8] appears, read: benzothiazamide surfactant 4 as co-surfactant, similar experiments with 2b/CTAB/base.
[9] abbreviates: base, CTAB 1.5×10^-3 M with fluorescein surfactant 3 (9×10^-5 M), 37° C.

SMILES strings stand for the structures. Counter-ions that a name gives are not always drawn. Like-named read-outs stand apart in the source and are kept apart here.

As to `Oc1ccc(C23OCCOC2(c2ccccc2)OO3)cc1` (centres unmarked) [deprotonated dioxetane (X=O^-)], in data set [1] (25° C.), the “decomposition rate relative to protonated form (X=OH)” value is reported as 5.7×10^6 times.

For `COC1(c2cccc(OP(=O)(O)O)c2)OOC12C1CC3CC(C1)CC2C3` (centres unmarked) [2c, 4-Methoxy-4-(3-phosphatephenyl)spiro[1,2-dioxetane-3,2'-adamantane], disodium salt], in data set [2] (10^-5 M 2c, 100 μL serum, 221 buffer pH 10.3, 37° C.), the “light intensity (constant level)” value is recorded as “approximately 2.3×10^4 counts/sec”. The “light intensity at the plateau vs enzyme concentration” value in data set [2] (100 to 1 μL of serum) is recorded as “directly proportional to the enzyme concentration”. In addition, the “background luminescence signal from non-enzymatic hydrolysis, of enzyme-generated value” in data set [2] (221 buffer pH 10.3, 37° C.) is “less than 0.05%”. Also, the “integrated light intensity vs amount of antigen” value in the data set on S-antigen (1.3 to 112 ng S-antigen) was “correlates with the amount of antigen coated on the well”. For the same compound, the reagent background luminescence with S-antigen (2c 1.36×10^-4 M, CTAB and 3, pH 9.1, 37° C.) was 15 - 20 counts/sec. Moreover, in the data set on S-antigen (ASA 3000 Polaroid film), the “photographic detection, control well with buffer and dioxetane only” value is given as “not visible”. Further, the Ea in data set [3] (Arrhenius plot, o-xylene, 80° to 120° C.) amounted to 32.5 kcal/mol. Further, in data set [3], the half-life was 6940 days. Moreover, in data set [3] (setting [7]), the Ea was determined as 32.5, the “Log A” value worked out at 14.9 and the “k(sec^-1) at 25° C.” value turned out to be 1.19e-09 s⁻¹. The period of chemiluminescence in data set [4] (12 pg/mL protein, CTAB and 3, 37° C.) turned out to be 45 min. The “detection of alkaline phosphatase” value in data set [4] (200 μL 221 buffer, CTAB and 3, enzyme purity of 10% assumed) is “less than 0.2 attomoles”. Further, in data set [4] (221 buffer pH 9.1, 37° C., no CTAB), the chemiluminescence quantum yield was 3.1×10^-5. In addition, in data set [4] (CTAB and fluorescer, depending on enzyme concentration), the “period over which light intensity increases” value is 30 to 60 min. In addition, the “background signal from non-enzymatic hydrolysis” value in data set [4] (buffer/co-micelle environment) is “only a few”. Further, the “chemiluminescence quantum yield (.PHI.Cl)” value in data set [4] (with CTAB (1.13×10^-3 M)) is given as 2.1×10^-4. Also, in data set [4] (with CTAB and fluorescein surfactant 3), the “increase compared to the enzymatic reaction in the absence of CTAB and 3” value turned out to be 500 fold. Besides, the “chemiluminescence quantum yield (.PHI.Cl)” value in data set [4] (with CTAB and fluorescein surfactant 3 (5.6×10^-5 M), pH 9.1, 37° C.) is 0.015. Further, in data set [4] (with CTAB and fluorescein surfactant 3, pH 9.1, 37° C.), the chemiluminescence efficiency is recorded as 1.5%.

For the compound `Oc1ccc(C23OCCOC2(c2ccccc2)OO3)cc1` (centres unmarked) [hydroxy-substituted dioxetane (X=OH)], the “half-life for decomposition at room temperature” value in data set [1] (25° C.) was 2.38 days. Further, the luminescence with base result in data set [1] (base at -30° C.) is given as “a flash of blue light”. Besides, the luminescence upon heating result in data set [1] (elevated temperatures) is listed as “very low levels of luminescence”.

As to `COC1(c2cccc(O)c2)OOC12C1CC3CC(C1)CC2C3` (centres unmarked) [aryloxide-substituted dioxetane], the half-life in data set [5] is 5 s.

With `CCCCCCCCCCCCCCCCNC(=O)c1nc2ccc(O)cc2s1` [compound 4, 1-Hexadecyl-6-hydroxy-2-benzothiazamide], in data set [6] (setting [8]), the chemiluminescence efficiency amounted to 0.3% and the λmax came out at 506 nm.

For `COC1(c2cccc(OC(C)=O)c2)OOC12C1CC3CC(C1)CC2C3` (centres unmarked) [2b, 4-(3-Acetoxyphenyl)-4-methoxyspiro[1,2-dioxetane-3,2'-adamantane]], in data set [3], the half-life was 4750 days. Also, in data set [3] (setting [7]), the Ea came to 30.4, the “Log A” value is 13.6 and the “k(sec^-1) at 25° C.” value worked out at 1.73e-09 s⁻¹. In data set [6] (CTAB above cmc vs water, 37° C.), the “increase in the chemiluminescence quantum yield” value is given as 19 fold. For the same compound, the “chemiluminescence quantum yield (.PHI.CL)” value in data set [6] (base in DMSO) is listed as 0.25. Moreover, in data set [6] (base in water), the “light yield (chemiluminescence quantum yield)” value is 8.9×10^-6. In data set [6] (setting [9]), the chemiluminescence efficiency came to 1.4% and the “chemiluminescence quantum yield (.PHI.CL)” value was 0.014. Further, in data set [6] (base, CTAB above critical micelle concentration, 37° C.), the “chemiluminescence quantum yield (.PHI.Cl)” value was 1.7×10^-4. Also, the “increase over the luminescence in the absence of CTAB and 3” value in data set [6] (base, CTAB with fluorescein surfactant 3, 37° C.) worked out at 500 fold.
